In ChEMBL document CHEMBL3885861, “Open TG-GATES”:

Organism: Rattus norvegicus
Assay: Open TG-GATES - Regimen: Daily Repeat
Type: toxicity, organism-based, Sprague-Dawley
Parameters: regimen Daily Repeat, gender Male, age 6 weeks
Settings: in vivo, po, route gavage; for APTT / Bas / Eos / Fbg / Hb / Ht / Lym / MCHC / MCV / Mono / Neu / PT / Plat / RBC / Ret / WBC: tissue Blood; for KIDNEY_L / KIDNEY_R / KIDNEY_TOTAL: tissue Kidney; for LIVER: tissue Liver; for ALP / ALT / AST / CRE / DBIL / GLC / K / LDH / Na / PL / RALB / TBIL / TC / TG / TP / gamma-GTP / IP / Ca: tissue Plasma
[1] = 200 mg/kg, 72 h, dose level Middle, time 3 day
[2] = 200 mg/kg, […], dose level Middle, time 7 day
[3] = 200 mg/kg, […], dose level Middle, time 14 day
[4] = 200 mg/kg, […], dose level Middle, time 28 day
[5] = 600 mg/kg, 72 h, dose level High, time 3 day
[6] = 600 mg/kg, […], dose level High, time 7 day
[7] = 600 mg/kg, […], dose level High, time 14 day
[8] = 600 mg/kg, […], dose level High, time 28 day

Compound: O=C1NC(=O)C(c2ccccc2)(c2ccccc2)N1 [PHENYTOIN]
- TERMINAL_BW [1]: 220.5 g
- APTT [1]: 21 s
- Bas [1]: 0%
- Eos [1]: 0.8%
- Fbg [1]: 304.4 mg/dL
- Hb [1]: 13 g/dL
- Ht [1]: 39.4%
- Lym [1]: 77.4%
- MCHC [1]: 33.1%
- MCV [1]: 63.8 fL
- Mono [1]: 2.4%
- Neu [1]: 18.4%
- PT [1]: 15.5 s
- Plat [1]: 117 x10_4/uL
- RBC [1]: 618.4 x10_4/ul
- Ret [1]: 7.3%
- WBC [1]: 98.2 x10_2/uL
- KIDNEY_L [1]: 0.9 g
- KIDNEY_R [1]: 0.9 g
- KIDNEY_TOTAL [1]: 1.9 g
- LIVER [1]: 10.5 g
- ALP [1]: 1568.8 IU/L
- ALT [1]: 45.8 IU/L
- AST [1]: 75.4 IU/L
- CRE [1]: 0.1 mg/dL
- DBIL [1]: 0.008 mg/dL
- GLC [1]: 185.8 mg/dL
- K [1]: 4 meq/L
- LDH [1]: 188 IU/L
- Na [1]: 143.4 meq/L
- PL [1]: 147 mg/dL
- RALB [1]: 2.9 g/dL
- TBIL [1]: 0.012 mg/dL
- TC [1]: 84.4 mg/dL
- TG [1]: 85.2 mg/dL
- TP [1]: 5.8 g/dL
- gamma-GTP [1]: 1 IU/L
- TERMINAL_BW [2]: 247.9 g
- TERMINAL_BW [3]: 301 g
- TERMINAL_BW [4]: 393.6 g
- APTT [2]: 22.3 s
- Bas [2]: 0%
- Eos [2]: 0.6%
- Fbg [2]: 324 mg/dL
- Hb [2]: 13.1 g/dL
- Ht [2]: 38.8%
- Lym [2]: 79.8%
- MCHC [2]: 33.7%
- MCV [2]: 62.5 fL
- Mono [2]: 2.4%
- Neu [2]: 16.2%
- PT [2]: 15.6 s
- Plat [2]: 123.7 x10_4/uL
- RBC [2]: 621.2 x10_4/ul
- Ret [2]: 6%
- WBC [2]: 109.9 x10_2/uL
- APTT [3]: 22.3 s
- Bas [3]: 0%
- Eos [3]: 0.8%
- Fbg [3]: 285.6 mg/dL
- Hb [3]: 14.1 g/dL
- Ht [3]: 41.4%
- Lym [3]: 82.6%
- MCHC [3]: 34.1%
- MCV [3]: 62 fL
- Mono [3]: 2.2%
- Neu [3]: 13.6%
- PT [3]: 16.3 s
- Plat [3]: 121.5 x10_4/uL
- RBC [3]: 669.8 x10_4/ul
- Ret [3]: 4.7%
- WBC [3]: 112.2 x10_2/uL
- APTT [4]: 23.4 s
- Bas [4]: 0%
- Eos [4]: 1.2%
- Fbg [4]: 332.6 mg/dL
- Hb [4]: 15.4 g/dL
- Ht [4]: 43.4%
- Lym [4]: 84%
- MCHC [4]: 35.5%
- MCV [4]: 58.1 fL
- Mono [4]: 1.4%
- Neu [4]: 12.6%
- PT [4]: 15.8 s
- Plat [4]: 122.2 x10_4/uL
- RBC [4]: 747 x10_4/ul
- Ret [4]: 2.9%
- WBC [4]: 117 x10_2/uL
- KIDNEY_L [2]: 1.1 g
- KIDNEY_R [2]: 1 g
- KIDNEY_TOTAL [2]: 2.1 g
- KIDNEY_L [3]: 1.2 g
- KIDNEY_R [3]: 1.2 g
- KIDNEY_TOTAL [3]: 2.4 g
- KIDNEY_L [4]: 1.4 g
- KIDNEY_R [4]: 1.5 g
- KIDNEY_TOTAL [4]: 2.9 g
- LIVER [2]: 12.4 g
- LIVER [3]: 13.9 g
- LIVER [4]: 17.5 g
- ALP [2]: 1383 IU/L
- ALT [2]: 39.4 IU/L
- AST [2]: 61 IU/L
- CRE [2]: 0.2 mg/dL
- DBIL [2]: 0.004 mg/dL
- GLC [2]: 187.6 mg/dL
- IP [2]: 6.9 mg/dL
- K [2]: 4.1 meq/L
- LDH [2]: 159.2 IU/L
- Na [2]: 141.8 meq/L
- PL [2]: 146.4 mg/dL
- RALB [2]: 3.1 g/dL
- TBIL [2]: 0.024 mg/dL
- TC [2]: 74.8 mg/dL
- TG [2]: 120.4 mg/dL
- TP [2]: 5.8 g/dL
- gamma-GTP [2]: 1 IU/L
- ALP [3]: 1572.8 IU/L
- ALT [3]: 41.8 IU/L
- AST [3]: 65.8 IU/L
- CRE [3]: 0.2 mg/dL
- DBIL [3]: 0 mg/dL
- GLC [3]: 174.2 mg/dL
- IP [3]: 7 mg/dL
- K [3]: 4.2 meq/L
- LDH [3]: 130 IU/L
- Na [3]: 142.8 meq/L
- PL [3]: 147 mg/dL
- RALB [3]: 3.1 g/dL
- TBIL [3]: 0.002 mg/dL
- TC [3]: 70.6 mg/dL
- TG [3]: 163.4 mg/dL
- TP [3]: 5.6 g/dL
- gamma-GTP [3]: 1.6 IU/L
- ALP [4]: 1131.8 IU/L
- ALT [4]: 44 IU/L
- AST [4]: 74.6 IU/L
- CRE [4]: 0.2 mg/dL
- DBIL [4]: 0.002 mg/dL
- GLC [4]: 186.4 mg/dL
- IP [4]: 6.3 mg/dL
- K [4]: 3.9 meq/L
- LDH [4]: 146.2 IU/L
- Na [4]: 143.6 meq/L
- PL [4]: 160 mg/dL
- RALB [4]: 3.2 g/dL
- TBIL [4]: 0.028 mg/dL
- TC [4]: 81 mg/dL
- TG [4]: 138.4 mg/dL
- TP [4]: 6.3 g/dL
- gamma-GTP [4]: 1.6 IU/L
- TERMINAL_BW [5]: 211.2 g
- APTT [5]: 21.7 s
- Bas [5]: 0%
- Eos [5]: 1%
- Fbg [5]: 282.8 mg/dL
- Hb [5]: 13.4 g/dL
- Ht [5]: 39.8%
- Lym [5]: 77.6%
- MCHC [5]: 33.8%
- MCV [5]: 64.7 fL
- Mono [5]: 2.4%
- PT [5]: 15.7 s
- Plat [5]: 124.6 x10_4/uL
- RBC [5]: 617 x10_4/ul
- Ret [5]: 6.3%
- WBC [5]: 85 x10_2/uL
- KIDNEY_L [5]: 0.9 g
- KIDNEY_R [5]: 0.9 g
- KIDNEY_TOTAL [5]: 1.9 g
- LIVER [5]: 10.5 g
- ALP [5]: 1803.2 IU/L
- ALT [5]: 45 IU/L
- AST [5]: 73.6 IU/L
- CRE [5]: 0.1 mg/dL
- DBIL [5]: 0.002 mg/dL
- GLC [5]: 158 mg/dL
- IP [5]: 7.3 mg/dL
- K [5]: 4.4 meq/L
- LDH [5]: 193.6 IU/L
- Na [5]: 143.2 meq/L
- PL [5]: 127.4 mg/dL
- RALB [5]: 3 g/dL
- TBIL [5]: 0.01 mg/dL
- TC [5]: 67 mg/dL
- TG [5]: 74.6 mg/dL
- TP [5]: 5.7 g/dL
- gamma-GTP [5]: 1.2 IU/L
- TERMINAL_BW [6]: 243.1 g
- TERMINAL_BW [7]: 290.1 g
- TERMINAL_BW [8]: 332.2 g
- APTT [6]: 23.9 s
- Bas [6]: 0%
- Eos [6]: 0.6%
- Fbg [6]: 311.5 mg/dL
- Hb [6]: 13.8 g/dL
- Ht [6]: 39.7%
- Lym [6]: 80.4%
- MCHC [6]: 34.7%
- MCV [6]: 62.1 fL
- Mono [6]: 2.2%
- Neu [6]: 15.6%
- PT [6]: 15.6 s
- Plat [6]: 125.6 x10_4/uL
- RBC [6]: 638.6 x10_4/ul
- Ret [6]: 4.6%
- WBC [6]: 101.9 x10_2/uL
- APTT [7]: 25.5 s
- Bas [7]: 0%
- Eos [7]: 0.8%
- Fbg [7]: 281.6 mg/dL
- Hb [7]: 14.4 g/dL
- Ht [7]: 42.7%
- Lym [7]: 81.6%
- MCHC [7]: 33.6%
- MCV [7]: 60.3 fL
- Mono [7]: 1.8%
- Neu [7]: 14.6%
- PT [7]: 16.3 s
- Plat [7]: 121.7 x10_4/uL
- RBC [7]: 709.6 x10_4/ul
- Ret [7]: 4.4%
- WBC [7]: 118.8 x10_2/uL
- APTT [8]: 25.5 s
- Bas [8]: 0%
- Eos [8]: 1%
- Fbg [8]: 299 mg/dL
- Hb [8]: 15.7 g/dL
- Ht [8]: 44.4%
- Lym [8]: 85.2%
- MCHC [8]: 35.4%
- MCV [8]: 56.8 fL
- Mono [8]: 1.4%
- Neu [8]: 11.6%
- PT [8]: 15.9 s
- Plat [8]: 105 x10_4/uL
- RBC [8]: 781.8 x10_4/ul
- Ret [8]: 2.5%
- WBC [8]: 89.2 x10_2/uL
- KIDNEY_L [6]: 1.1 g
- KIDNEY_R [6]: 1.1 g
- KIDNEY_TOTAL [6]: 2.2 g
- KIDNEY_L [7]: 1.2 g
- KIDNEY_R [7]: 1.2 g
- KIDNEY_TOTAL [7]: 2.3 g
- KIDNEY_L [8]: 1.3 g
- KIDNEY_R [8]: 1.3 g
- KIDNEY_TOTAL [8]: 2.6 g
- LIVER [6]: 13.6 g
- LIVER [7]: 13.6 g
- LIVER [8]: 13.8 g
- ALP [6]: 1547.2 IU/L
- ALT [6]: 39.4 IU/L
- AST [6]: 59.6 IU/L
- CRE [6]: 0.2 mg/dL
- DBIL [6]: 0 mg/dL
- GLC [6]: 167 mg/dL
- IP [6]: 6.8 mg/dL
- K [6]: 4.2 meq/L
- LDH [6]: 173 IU/L
- Na [6]: 142.2 meq/L
- PL [6]: 145.2 mg/dL
- RALB [6]: 3 g/dL
- TBIL [6]: 0.024 mg/dL
- TC [6]: 77.8 mg/dL
- TG [6]: 78.6 mg/dL
- TP [6]: 5.8 g/dL
- gamma-GTP [6]: 1 IU/L
- ALP [7]: 1535.6 IU/L
- ALT [7]: 43.6 IU/L
- AST [7]: 65.6 IU/L
- CRE [7]: 0.2 mg/dL
- Ca [7]: 10.2 mg/dL
- DBIL [7]: 0 mg/dL
- GLC [7]: 186 mg/dL
- IP [7]: 6.4 mg/dL
- K [7]: 4.1 meq/L
- LDH [7]: 157.2 IU/L
- Na [7]: 143 meq/L
- PL [7]: 137.8 mg/dL
- RALB [7]: 3 g/dL
- TBIL [7]: 0.004 mg/dL
- TC [7]: 69.4 mg/dL
- TG [7]: 99.4 mg/dL
- TP [7]: 5.7 g/dL
- gamma-GTP [7]: 1.6 IU/L
- ALP [8]: 1175.6 IU/L
- ALT [8]: 40.4 IU/L
- AST [8]: 62 IU/L
- CRE [8]: 0.2 mg/dL
- Ca [8]: 10 mg/dL
- DBIL [8]: 0 mg/dL
- GLC [8]: 183.2 mg/dL
- IP [8]: 5.4 mg/dL
- K [8]: 4 meq/L
- LDH [8]: 135.8 IU/L
- Na [8]: 143.4 meq/L
- PL [8]: 135.4 mg/dL
- RALB [8]: 3.1 g/dL
- TBIL [8]: 0.024 mg/dL
- TC [8]: 67.2 mg/dL
- TG [8]: 95.4 mg/dL
- TP [8]: 6.1 g/dL
- gamma-GTP [8]: 1.4 IU/L
